This is an account of results in US20150322083A1, “(THIENO[2,3-b][1,5]BENZOXAZEPIN-4-YL)PIPERAZIN-1-YL COMPOUNDS AS SELECTIVE 5-HT2A INVERSE AGONISTS” (Eli Lilly and Company, priority 2014, published 2015).

Each structure is given as a SMILES string. Some results are limits rather than exact numbers.

One test deals with Dopamine Transporter (Homo sapiens, UniProt Q01959). As to the kind of experiment: Dopamine transporter binding. The method, then:
(§1) Curves are evaluated using a 4-parameter logistic nonlinear equation to obtain the concentration of competitor causing 50% inhibition of radioligand binding (IC50). Equilibrium dissociation constants (Ki) are calculated according to the equation Ki=IC50/(1+L/Kd), where L equals the concentration of radioligand used in the experiment and Kd equals the equilibrium dissociation constant of the radioligand for the receptor, determined from standard saturation analysis or homologous competition experiments. Reported values for Ki, where n values are indicated, are shown as geometric mean±the standard error of the mean (SEM), with the number of replicate determinations indicated by n. Geometric means are calculated by the equation GeoMean=10̂(Average(log Ki 1+log Ki 2+ . . . log Ki n)/[…]).
(§2) Further, the compounds of the invention may be tested in binding assays and functional activity assays by well known methods for other physiologically important receptors such as, but not limited to, the hERG channel, other serotonin receptors (specifically 5-HT1B receptors, lack of agonist activity at 5-HT2B receptors, 5-HT2C, 5-HT5, 5-HT6, and 5-HT7 receptors), dopaminergic receptors (specifically D1, D2, and D3), H1 receptors, GABAA receptors, adrenergic receptors and monoamine transporters.

The target of the next test is Adrenergic alpha2A (Homo sapiens, UniProt P08913). As to the kind of experiment: Adrenergic alpha2A binding. The method, then: as §1, §2
Chain of Adrenergic alpha2A (P08913 whole entry): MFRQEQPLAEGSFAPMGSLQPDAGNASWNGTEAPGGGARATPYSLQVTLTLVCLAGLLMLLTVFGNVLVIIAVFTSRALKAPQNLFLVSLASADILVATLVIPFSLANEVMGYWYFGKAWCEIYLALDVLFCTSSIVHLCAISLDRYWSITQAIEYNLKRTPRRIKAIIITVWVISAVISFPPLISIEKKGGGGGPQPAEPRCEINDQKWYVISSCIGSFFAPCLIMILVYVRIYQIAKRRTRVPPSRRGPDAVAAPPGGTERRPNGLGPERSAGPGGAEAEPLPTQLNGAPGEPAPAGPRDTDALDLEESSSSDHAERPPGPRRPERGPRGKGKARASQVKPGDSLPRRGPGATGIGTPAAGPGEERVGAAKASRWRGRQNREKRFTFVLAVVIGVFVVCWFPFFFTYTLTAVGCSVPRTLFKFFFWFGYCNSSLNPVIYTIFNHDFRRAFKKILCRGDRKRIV
For test [1], the target named is recombinant human 5-HT2A receptor (Homo sapiens, UniProt P28223). Nature of the test: 5-HT2A competition binding assay ([3H]-Ketanserin, SPA). Details: expressed in transfected cells. The method, then:
[^3H]-Ketanserin binding experiments are carried out in SPA 96-well format. Membranes used in this assay are prepared from AV-12 cells stably expressing recombinant 5-HT2A receptors (human). The incubation is initiated by the addition of a mixture of WGA YSi SPA beads (1 mg/well, Perkin Elmer (MA, USA), Product No. RPNQ0011) and 2 μg membranes to assay buffer (67 mM Tris, 0.5 mM EDTA; pH 7.6) containing 3.1 nM [^3H]-Ketanserin and varying concentrations of the test compound (10 point concentration response curves). Non-specific binding is determined in the presence of 20 μM 1-(1-naphthyl)piperazine. Samples are incubated for 4 hr. at room temperature (22° C.) and then read in a microplate scintillation counter.
(§3) Curves are evaluated using a 4-parameter logistic nonlinear equation to obtain the concentration of competitor causing 50% inhibition of radioligand binding (IC50). Equilibrium dissociation constants (Ki) are calculated according to the equation Ki=IC50/(1+L/Kd), where L equals the concentration of radioligand used in the experiment and Kd equals the equilibrium dissociation constant of the radioligand for the receptor, determined from standard saturation analysis or homologous competition experiments. […]

Test [2] concerns MK-801 induced locomotor hyperactivity. As to the kind of experiment: MK-801 induced locomotor hyperactivity in mice. It is filed as in vivo. As to conditions: for Distance traveled during habituation with vehicle or compound, Mean: 1 hr. habituation before MK-801; for Distance traveled after administration of vehicle or 0.1 mg/Kg MK-801, Mean: 2 hrs after MK-801 0.1 mg/kg SC. The source says:
MK-801 induced locomotor hyperactivity in mice: The rodent MK-801 induced locomotor hyperactivity assay has been used as a predictor of anti-psychotic therapeutic potential (Corbett, R., Camacho, F., Woods, A. T., Kerman, L. L., Fishkin, R. J., Brooks, K., and Dunn, R. W. Antipsychotic agents antagonize non-competitive N-methyl-D-aspartate antagonist-induced behaviors. Psychopharmacology (1995) vol. 120: 67-74). Compounds of the invention may be evaluated for their ability to reduce locomotor hyperactivity elicited by the NMDA receptor antagonist MK-801. Studies are conducted in the dark. Locomotor activity is measured in clear Perspex™ boxes (40×40×30 cm) based on infrared fields (100×100 cm). Sixteen boxes are used, four on each field, each monitored using overhead infrared cameras (Sanyo VCV-3412P, TrackSys Ltd, UK). The cameras feed into a Quad Videoswitch (VQ403-C), TrackSys Ltd, UK), which in turn feeds a PC running the image analysis application Ethovision v8 (Noidus, NL).
All treatment tzroups have initial sample sizes of n=8. Mice are assigned to groups using a pseudorandomised block method where treatments are balanced across the time of day of testing and the test room used. On the test day, animals are transported to the testing room ante-chamber in their home cages and dosed with the test compound (0.3-3 mg/kg po) or vehicle before being placed individually into the test boxes for 1 hr., during which time locomotor activity is measured. Following this habituation period, animals are dosed with MK-801 (0.1 mg/kg SC) or vehicle as appropriate and then replaced into the test boxes where locomotor activity is measured for a further 2 hrs. The measurement of interest for LMA studies is the distance moved (cm). Unless stated otherwise, points on all graphs are plotted as the mean±standard errors.
Data are imported into STATISTICA (v9) for statistical analyses. A general linear model approach is used for all multivariate ANOVAs calculated for the data. Following ANOVA, planned comparisons are used to investigate significant differences from the control animals. Statistical significances are denoted by the following symbols: *p<0.05, **p<0.01. Mean values calculated in Statistica are imported into SigmaPlot (v11) to graph the data.

Another test deals with Dopamine D1 (Homo sapiens, UniProt P21728). As to the kind of experiment: Dopamine D1 binding. The method, then:
as §1, §2

The target of test [3] is T1, recombinant 5-HT2C receptors (human) (Homo sapiens, UniProt P28335).
T1 construct: expressed in transfected cells
T1 sequence (P28335 33-458): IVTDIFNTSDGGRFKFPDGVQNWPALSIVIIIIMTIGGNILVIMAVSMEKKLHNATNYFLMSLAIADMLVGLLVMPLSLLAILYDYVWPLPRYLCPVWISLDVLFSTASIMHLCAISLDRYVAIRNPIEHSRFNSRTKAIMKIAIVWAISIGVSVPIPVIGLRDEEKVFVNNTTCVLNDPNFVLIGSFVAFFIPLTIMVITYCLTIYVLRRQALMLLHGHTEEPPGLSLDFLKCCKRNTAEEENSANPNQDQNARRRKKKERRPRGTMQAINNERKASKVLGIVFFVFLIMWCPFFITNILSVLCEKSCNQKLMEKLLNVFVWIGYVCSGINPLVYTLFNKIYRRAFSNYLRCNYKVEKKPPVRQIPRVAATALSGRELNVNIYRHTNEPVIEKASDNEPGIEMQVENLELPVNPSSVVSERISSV
As to the kind of experiment: 5-HT2C competition binding assay ([125I]-(±)DOI, SPA). The method, then: [^125I]-(±)DOI binding experiments are carried out in SPA 96-well format. Membranes used in this assay are prepared from AV-12 cells stably expressing recombinant 5-HT2C receptors (human). The incubation is initiated by the addition of a mixture of WGA PVT SPA beads (0.5 mg/well, Perkin Elmer (MA, USA), RPNQ0001) and 2.5 μg membranes to assay buffer (50 mM Tris-HCl, 10 mM MgCl2, 0.5 mM EDTA, 10 μM pargyline, 0.1% ascorbic acid, pH7.4) containing 0.2 nM [[^125I]-(±)DOI and varying concentrations of the test compound (10 point concentration response curves). Non-specific binding is determined in the presence of 20 μM 1-(1-naphthyl)piperazine. Samples are incubated for 4 hr. at room temperature (22° C.) and then read in a microplate scintillation counter.
as §3

Chain of recombinant human 5-HT2A receptor (P28223 whole entry): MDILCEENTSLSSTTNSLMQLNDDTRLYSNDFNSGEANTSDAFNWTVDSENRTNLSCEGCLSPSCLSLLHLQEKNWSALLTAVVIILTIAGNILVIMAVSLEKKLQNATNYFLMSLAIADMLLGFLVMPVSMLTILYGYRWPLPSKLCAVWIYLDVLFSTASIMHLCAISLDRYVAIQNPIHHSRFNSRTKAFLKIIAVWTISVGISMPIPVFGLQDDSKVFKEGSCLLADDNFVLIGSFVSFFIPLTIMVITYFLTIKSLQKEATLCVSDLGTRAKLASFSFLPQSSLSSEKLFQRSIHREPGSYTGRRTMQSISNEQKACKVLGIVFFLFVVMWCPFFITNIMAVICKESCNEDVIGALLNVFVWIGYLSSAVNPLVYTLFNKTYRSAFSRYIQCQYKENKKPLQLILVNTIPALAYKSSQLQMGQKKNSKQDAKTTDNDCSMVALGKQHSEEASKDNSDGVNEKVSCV
Chain of Dopamine D1 (P21728 whole entry): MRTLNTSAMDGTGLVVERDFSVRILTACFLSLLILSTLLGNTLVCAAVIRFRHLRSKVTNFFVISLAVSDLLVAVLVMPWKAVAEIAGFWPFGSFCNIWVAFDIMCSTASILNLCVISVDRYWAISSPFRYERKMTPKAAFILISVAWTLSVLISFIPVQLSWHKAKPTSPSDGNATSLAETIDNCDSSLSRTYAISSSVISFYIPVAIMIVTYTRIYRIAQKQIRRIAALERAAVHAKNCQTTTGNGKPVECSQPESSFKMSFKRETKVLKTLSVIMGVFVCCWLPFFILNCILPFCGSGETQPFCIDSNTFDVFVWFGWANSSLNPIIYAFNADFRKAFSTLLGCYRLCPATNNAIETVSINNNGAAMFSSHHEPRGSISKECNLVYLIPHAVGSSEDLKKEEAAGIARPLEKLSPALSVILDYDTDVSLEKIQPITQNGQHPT
Chain of Dopamine Transporter (Q01959 whole entry): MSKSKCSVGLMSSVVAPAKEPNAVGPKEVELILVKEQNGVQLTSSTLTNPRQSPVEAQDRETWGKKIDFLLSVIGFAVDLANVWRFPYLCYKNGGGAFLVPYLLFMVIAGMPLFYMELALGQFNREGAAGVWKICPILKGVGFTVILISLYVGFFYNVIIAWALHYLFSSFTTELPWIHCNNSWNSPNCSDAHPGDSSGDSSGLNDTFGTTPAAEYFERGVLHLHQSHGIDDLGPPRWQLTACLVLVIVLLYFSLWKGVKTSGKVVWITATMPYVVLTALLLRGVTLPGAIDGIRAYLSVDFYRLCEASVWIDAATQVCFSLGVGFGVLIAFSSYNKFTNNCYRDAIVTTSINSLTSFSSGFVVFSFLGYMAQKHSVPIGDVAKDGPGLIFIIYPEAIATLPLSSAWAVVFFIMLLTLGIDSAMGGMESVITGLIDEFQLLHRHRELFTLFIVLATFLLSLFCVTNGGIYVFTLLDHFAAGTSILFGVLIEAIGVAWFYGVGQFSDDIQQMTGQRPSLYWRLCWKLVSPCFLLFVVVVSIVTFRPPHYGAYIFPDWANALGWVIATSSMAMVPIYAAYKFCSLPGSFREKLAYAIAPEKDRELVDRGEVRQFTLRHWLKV

As usually defined, the Ki is the equilibrium dissociation constant of an inhibitor or competing ligand from its target. On to `Cc1ccc2c(c1)Oc1sc(SC(C)C)cc1C(N1CCN(CC(C)(C)C(=O)O)CC1)=N2` [Example 1, 3-[4-(2-isopropylsulfanyl-8-methyl-thieno[2,3-b][1,5]benzoxazepin-4-yl)piperazin-1-yl]-2,2-dimethyl-propanoic acid], for which the inhibition constant Ki was more than 866 nM on Dopamine Transporter; more than 1610 nM at Adrenergic alpha2A; 4.84 nM in test [1]; 2640 nM on Dopamine D1; 359 nM in test [3]. Further, the “Distance traveled during habituation with vehicle or compound, Mean” value in test [2] (0.3 mg/Kg po) came to 9336.73 cm; in test [2] (1.0 mg/Kg po) it was 8939.48 cm; in test [2] (3.0 mg/Kg po) it was 7682.77 cm. For the same compound, the “Distance traveled after administration of vehicle or 0.1 mg/Kg MK-801, Mean” value in test [2] (0.3 mg/Kg po) came to 8492.08 cm; in test [2] (1.0 mg/Kg po), 7258.87 cm; in test [2] (3.0 mg/Kg po), 7085.68 cm. Besides, the “effect on MK-801 induced locomotor hyperactivity (in words)” value in test [2] (0.3-3 mg/kg po) is reported as “significantly block”.
